Data taken from US8367659B2, “Oxazinyl isoflavonoid compounds, medicaments and use” (Marshall Edwards, Inc., priority 2007, dated 2013).

Assays:
[1] = test system: human umbilical vein smooth muscle cells (HUVSMC); assay: Proliferation of human umbilical vein smooth muscle cells (MTT); type: cell-based; conditions: 10 μM; 10% FCS, 5 days; FIG. 8
Method: The effect of test compounds on human umbilical vein smooth muscle cells (HUVSMC) was examined. Cells were seeded into 96 well plates at a low seeding rate of 1.6×10^3 cells per well, and allowed to attach for 24 hours. The cells were then washed twice with medium without FCS and incubated in medium without FCS for 20 hours to serum starve them. Analogue was prepared in medium without FCS at 20 μM and added to the plates and incubated for one hour. Final analogue concentration was therefore 10 μM. The cells were then stimulated by adding medium +20% FCS, to give a final FCS concentration of 10%. The cells were incubated until the control cells i.e. those with FCS and no compound, were just confluent (5 days). An MTT assay was performed, and difference in absorbance in analogue treated cells from the control was calculated using the formula: test/control*100−100. Results
The effect of test compounds on human umbilical vein smooth muscle cells (HUVSMC), was examined. Cells, tissue explants from a neonate (HRI—passage 2), were seeded into 96 well plates at 1×10^3 cells per well, and allowed to attach for 24 hours. They were then washed twice and incubated in medium without foetal calf serum (FCS) for 24-48 hours to serum-starve them. Test compounds were prepared in medium without FCS and added to the plates and incubated for one hour. Medium with FCS was added to give a final concentration of 10% and the plates incubated for 4-5 days until the controls were just confluent.

[2] = test system: TXB2 synthesis in RAW 264.7 murine macrophages; assay: LPS-induced TXB2 synthesis in RAW 264.7 murine macrophages; type: cell-based, mouse; conditions: 10 μM; relative to vehicle alone; FIG. 4
Method: (§1) The mouse macrophage cell line RAW 264.7 was cultured in DMEM supplemented with foetal calf serum (FCS), […] glutamine and 50 U/ml penicillin/streptomycin. Cells were treated with either test compound (in 0.025% DMSO) or vehicle alone, and added one hour before 50 ng/ml LPS. After incubation for 24 h, culture media was collected for PGE2 or TXB2 measurement by ELISA (Cayman Chemical), and TNFα measurement using an ELISA (Becton Dickinson). Test compounds were examined a concentration of 10 μM. […] Consequently, to assess the effect of test compounds on various analytes, cell viability was taken into consideration with the use of the formula: Actual effect of test compound=measured effect−(effect on cell viability×measured effect)

[3] = Free radical scavenging with DPPH; conditions: DPPH, 20 minutes, absorbance 517 nm; Table 4; read-out: Free radical scavenging ability EC50
Method: The antioxidant (free radical trapping) activity of test compounds was assessed using the stable free radical compound 2,2-diphenyl-1-picrylhydrazyl (DPPH). A stock solution of DPPH was prepared at a concentration of […] in ethanol and mixed for 10 minutes prior to use. Test compounds at a concentration of 100 μM were reacted with DPPH for, 20 minutes, alter which time the absorbance at 517 nm was determined. Initial screening of was done at 100 μM. The change in absorbance at 517 nm was compared to a reagent blank (DPPH with ethanol alone). […] The IC50 values were estimated as the concentration of test compound that caused a 0.6 change in absorbance (with 1.2 absorbance units representing total scavenging of the DPPH radical).
The antioxidant (free radical trapping) activity of test compounds was assessed using the stable free radical compound 2,2-diphenyl-1-picrylhydrazyl (DPPH). A stock solution of DPPH was prepared […] in ethanol and mixed for 10 minutes prior to use. Initial screening of test compound at a concentration of 100 μM was reacted with DPPH for 20 minutes, after which time the absorbance at 517 nm was determined. The change in absorbance was compared to a reagent blank (DPPH with ethanol alone). […] The IC50 value was estimated as the concentration of test compound that causes a 0.6 change in absorbance (with 1.2 absorbance units representing total scavenging of the DPPH radical).

[4] = test system: cancer cell lines; assay: Anti-cancer activity, cancer cell lines tested as a group (MTT); type: cell-based
[5] = test system: PGE2 synthesis in RAW 264.7 murine macrophages; assay: LPS-induced PGE2 synthesis in RAW 264.7 murine macrophages; type: cell-based, mouse; conditions: 10 μM; relative to vehicle alone; FIG. 3
Method: as §1

[6] = test system: NO synthesis in RAW 264.7 murine macrophages; assay: LPS-induced NO synthesis in RAW 264.7 murine macrophages (Griess); type: cell-based, mouse; conditions: 10 μM; relative to vehicle alone; FIG. 6
Method: as §1, with “Dickinson). Nitrite concentration is a quantitative indicator of NO production and was determined by the Griess Reaction. Briefly, 100 μL of Griess reagent was added to 50 μL of each supernatant in duplicate. The absorbance at 550 nm was measured (Molecular Devices, SpectraMax 250 microplate spectrophotometer, CA, USA), and nitrite concentrations were determined against a standard curve of sodium nitrite. The percentage nitrite inhibition was calculated as: [100−(nitrite concentration of sample/nitrite of vehicle control LPS cells)×100]. Results” for “Dickinson).”

[7] = test system: MM200; assay: Anti-cancer activity, MM200 melanoma cells (MTT); type: cell-based; conditions: 120 h; 5 days, MTT
[8] = test system: CP70; assay: Anti-cancer activity, CP70 ovarian cancer cells (MTT); type: cell-based; conditions: 120 h, 5 days
[9] = test system: HPAC; assay: Anti-cancer activity, HPAC pancreatic cancer cells (MTT); type: cell-based; conditions: Homo sapiens, 120 h, 5 days
[10] = biological target: T1, GAL4-PPARγ fusion protein (Homo sapiens, UniProt P37231); assay: PPARγ activity in transfected HEK293 cells (beta-lactamase reporter); type: cell-based; conditions: FIG. 13: 1 μM
T1 construct: host or cells: HEK293 (human embryonic kidney), stably transfected
T1 sequence (P37231 238-503 limits assumed): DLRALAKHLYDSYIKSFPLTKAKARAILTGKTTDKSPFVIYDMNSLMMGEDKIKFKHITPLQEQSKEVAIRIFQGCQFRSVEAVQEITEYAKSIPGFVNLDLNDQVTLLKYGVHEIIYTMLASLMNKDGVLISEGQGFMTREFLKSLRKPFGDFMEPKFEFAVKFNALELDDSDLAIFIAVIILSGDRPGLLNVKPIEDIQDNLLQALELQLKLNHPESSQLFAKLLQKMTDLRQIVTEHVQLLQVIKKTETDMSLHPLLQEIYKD
T1 sequence (P04386 1-147 partner limits assumed): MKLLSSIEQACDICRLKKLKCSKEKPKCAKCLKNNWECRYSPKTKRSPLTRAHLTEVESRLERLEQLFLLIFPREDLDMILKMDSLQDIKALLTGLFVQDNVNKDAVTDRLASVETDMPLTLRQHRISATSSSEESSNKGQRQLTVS
Method: Human HEK293 cells, stably transfected with the PPARγ ligand binding domain fused with the DNA binding domain of the GAL4 protein (GAL4-PPARγ fusion protein), produce beta-lactamase when incubated with PPARγ ligands. Transfected human kidney embryonic cells (Invitrogen Inc., Carlsbad, Calif.) were seeded onto matrigel in 96-well plates and allowed to attach overnight. The following day, vehicle alone (DMSO) or test compound at 1, 5 and 10 μM was added at varying concentrations to cells and incubated for 16-18 hours. Cells were then loaded with a FRET-based fluorescent substrate to assess beta-lactamase activity. Cells were protected from light, and incubated at room temperature for 2 h. Plates were read on a fluorescence plate reader with an excitation wavelength of 409 nm and emission wavelengths of 460 nm and 530 nm. Results were expressed as a ratio of these two wavelengths after the background (cell-free control wells) had been subtracted. PPARγ activity was thus determined by measuring beta-lactamase activity as assessed by a fluorescent product to substrate ratio.

SMILES: Oc1ccc(C2=Cc3cc4c(cc3OC2)OCN(c2ccc(O)cc2)C4)cc1 [Compound 8, 4,4′-(Chromeno[6,7-e][1,3]oxazine-3,7 (2H,4H,8H)-diyl)diphenol]
- effect on proliferation of HUVSMCs induced by FCS [1]: significantly inhibited the proliferation
- mean change of LPS-induced TXB2 synthesis [2]: greatest inhibition
- EC50 [3]: 16 µM

SMILES: COc1ccc(CN2COc3cc4c(cc3C2)C=C(c2ccc(OC)c(OC)c2)CO4)cc1 [Compound 9, 7-(3,4-Dimethoxyphenyl)-3-(4-methoxybenzyl)-2,3,4,8-tetrahydrochromeno[6,7-e][1,3]oxazine]
- toxicity against cancer cells ([4]; where tested): moderate toxicity
- mean change of LPS-induced TXB2 synthesis [2]: greatest inhibition
- EC50 [3]: 36 µM
- mean change of LPS-induced PGE2 synthesis [5]: greatest inhibition

SMILES: COc1ccc(C2=Cc3cc4c(cc3OC2)OCN(c2ccccc2)C4)cc1OC [Compound 12, 7-(3,4-Dimethoxyphenyl)-3-phenyl-2,3,4,8-tetrahydrochromeno[6,7-e][1,3]oxazine]
- mean change of LPS-induced PGE2 synthesis [5]: greatest inhibition

SMILES: COc1ccc(C2=Cc3cc4c(c(C)c3OC2)OCN(Cc2ccccc2)C4)cc1OC [Compound 13, 3-Benzyl-7-(3,4-dimethoxyphenyl)-10-methyl-2,3,4,8-tetrahydrochromeno[6,7-e][1,3]oxazine]
- EC50 [3]: 41 µM

SMILES: CCCN1COc2c(cc3c(c2C)OCC(c2ccc(OC)c(OC)c2)=C3)C1 [Compound 14, 7-(3,4-Dimethoxyphenyl)-10-methyl-3-propyl-2,3,4,8-tetrahydrochromeno[6,7-e][1,3]oxazine]
- mean change of LPS-induced NO synthesis [6]: greatest inhibition
- mean change of LPS-induced TXB2 synthesis [2]: greatest inhibition
- mean change of LPS-induced PGE2 synthesis [5]: greatest inhibition

SMILES: Oc1ccc(C2=Cc3cc4c(cc3OC2)OCN(Cc2ccc(Cl)cc2)C4)cc1 [Compound 15, 4-(3-(4-Chlorobenzyl)-2,3,4,8-tetrahydrochromeno[6,7-e][1,3]oxazin-7-yl)phenol]
- IC50 [7]: 9.4 ± 1.5 µM
- IC50 [8]: 4.41 µM
- activity against CP70, HPAC and MM200 cell lines ([4]; CP70, HPAC and MM200): active
- EC50 [3]: 22.5 µM
- IC50 [9]: 7.89 µM

SMILES: COCCCN1COc2cc3c(cc2C1)C=C(c1ccc(O)cc1)CO3 [Compound 16, 4-(3-(3-Methoxypropyl)-2,3,4,8-tetrahydrochromeno[6,7-e][1,3]oxazin-7-yl)phenol]
- IC50 [7]: 1.8 µM
- IC50 ([4]; read-out: most potent activity against the respective cell lines tested): 1 to 5 µM
- EC50 [3]: 22 µM
- IC50 [9]: 3.88 µM

SMILES: Cc1ccc(N2COc3cc4c(cc3C2)C=C(c2ccc(O)cc2)CO4)cc1 [Compound 18, 4-(3-p-Tolyl-2,3,4,8-tetrahydrochromeno[6,7-e][1,3]oxazin-7-yl)phenol]
- PPARγ activation, increase in beta-lactamase activity over media only control [10]: PPARγ agonist activity
- effect on proliferation of HUVSMCs induced by FCS [1]: significantly inhibited the proliferation
- EC50 [3]: 29 µM

SMILES: COc1ccc(C2=Cc3cc4c(c(C)c3OC2)OCN(c2ccc(C)cc2)C4)cc1OC [Compound 19, 7-(3,4-Dimethoxyphenyl)-10-methyl-3-p-tolyl-2,3,4,8-tetrahydrochromeno[6,7-e][1,3]oxazine]
- mean change of LPS-induced NO synthesis [6]: greatest inhibition
- effect on proliferation of HUVSMCs induced by FCS [1]: significantly inhibited the proliferation
- EC50 [3]: 41 µM

SMILES: Cc1ccc(N2COc3cc4c(cc3C2)C=C(c2cccc(O)c2)CO4)cc1 [Compound 20, 3-(3-p-Tolyl-2,3,4,8-tetrahydrochromeno[6,7-e][1,3]oxazin-7-yl)phenol]
- PPARγ activation, increase in beta-lactamase activity over media only control [10]: PPARγ agonist activity
- effect on proliferation of HUVSMCs induced by FCS [1]: significantly inhibited the proliferation
- EC50 [3]: 38 µM

SMILES: N#Cc1ccc(N2COc3cc4c(cc3C2)C=C(c2cccc(O)c2)CO4)cc1 [Compound 21, 4-(7-(3-Hydroxyphenyl)chromeno[6,7-e][1,3]oxazin-3(2H,4H,8H)-yl)benzonitrile]
- EC50 [3]: 44 µM

SMILES: O=[N+]([O-])c1cccc(N2COc3cc4c(cc3C2)C=C(c2ccc(O)cc2)CO4)c1 [Compound 23, 4-(3-(3-Nitrophenyl)-2,3,4,8-tetrahydrochromeno[6,7-e][1,3]oxazin-7-yl)phenol]
- mean change of LPS-induced NO synthesis [6]: greatest inhibition
- PPARγ activation, increase in beta-lactamase activity over media only control [10]: PPARγ agonist activity
- mean change of LPS-induced TXB2 synthesis [2]: greatest inhibition
- EC50 [3]: 27 µM
- mean change of LPS-induced PGE2 synthesis [5]: greatest inhibition

SMILES: CCCN1COc2c(cc3c(c2Br)OCC(c2ccc(O)cc2)=C3)C1 [Compound 25, 4-(10-Bromo-3-propyl-2,3,4,8-tetrahydrochromeno[6,7-e][1,3]oxazin-7-yl)phenol]
- EC50 [3]: 23 µM

SMILES: Cc1c2c(cc3c1OCN(c1ccc(O)cc1)C3)C=C(c1cccc(O)c1)CO2 [Compound 26, 3,4′-(10-Methyl-chromeno[6,7-e][1,3]oxazine-3,7(2H,4H,8H)-diyl)diphenol]
- EC50 [3]: 26 µM

SMILES: CC(C)(C)c1ccc(CN2COc3cc4c(cc3C2)C=C(c2ccc(O)cc2)CO4)cc1 [Compound 29, 4-(3-(4-tert-Butylbenzyl)-2,3,4,8-tetrahydrochromeno[6,7-e][1,3]oxazin-7-yl)phenol]
- PPARγ activation, increase in beta-lactamase activity over media only control [10]: PPARγ agonist activity
